Assay results: patent publication US9321728B2, “Beta-alanine derivatives, pharmaceutically acceptable salts thereof, and pharmaceutical composition comprising same as active ingredient” (KOREA RESEARCH INSTITUTE OF CHEMICAL TECHNOLOGY, priority 2012, dated 2016)
Blank lines part the entries; values can stand above or below the compound they belong to.

Molecular target: human DGAT1 (Homo sapiens (Human), UniProt O75907)
Test: Human DGAT1 enzyme inhibition test (phospholipid FlashPlate, [14C]decanoyl-CoA)
Type: biochemical
Settings: for IC50: lysate of Hep3B cells over-expressing human DGAT1 (5 μg/well), didecanoyl glycerol and [14C]decanoyl-CoA substrates; for in vitro inhibition activity with respect to DGAT1: verbal summary of Table 1
Procedure: The cells were treated with 200 μg/ml G-418(Sigma) once every three days for 4 weeks to over-express the human DGAT1, thereby obtaining a stabilized cell line. The over-expressed cells were put into a homogenization buffer [250 mM sucrose, 10 mM Tris-HCl (pH 7.4), 1 mM EDTA] and lysed by a homogenization apparatus. Then, centrifugation was performed with 600×g for 15 minutes to remove cell residue, and the obtained cells were used for an enzyme inhibition test. Human DGAT-1 and mouse DGAT activity was determined as follows: Assay buffer [20 mM HEPES (pH 7.4), 100 mM MgCl2, 0.04% BSA] containing 500 μM of enzyme substrate (didecanoyl glycerol) and 7.5 μM radiolabeled acyl-CoA substrate ([^14C]decanoyl-CoA) was added to each well of a phospholipid FlashPlate (PerkinElmer Life Sciences). A small aliquot of lysate (5 μg/well) or mouse liver microsome (0.1 mg/well) was added to start the reaction, which was allowed to proceed in a 20° C. bath for 1 hour. and maintained overnight at room temperature. Next day, measurement was performed by Wallac 1450 Microbeta Trilux Liquid Scintillation Counter and Luminometer (PerkinElmer Life Science). […] A calculation method of inhibition degree (%) is as follows.

human DGAT1, sequence (O75907 whole entry): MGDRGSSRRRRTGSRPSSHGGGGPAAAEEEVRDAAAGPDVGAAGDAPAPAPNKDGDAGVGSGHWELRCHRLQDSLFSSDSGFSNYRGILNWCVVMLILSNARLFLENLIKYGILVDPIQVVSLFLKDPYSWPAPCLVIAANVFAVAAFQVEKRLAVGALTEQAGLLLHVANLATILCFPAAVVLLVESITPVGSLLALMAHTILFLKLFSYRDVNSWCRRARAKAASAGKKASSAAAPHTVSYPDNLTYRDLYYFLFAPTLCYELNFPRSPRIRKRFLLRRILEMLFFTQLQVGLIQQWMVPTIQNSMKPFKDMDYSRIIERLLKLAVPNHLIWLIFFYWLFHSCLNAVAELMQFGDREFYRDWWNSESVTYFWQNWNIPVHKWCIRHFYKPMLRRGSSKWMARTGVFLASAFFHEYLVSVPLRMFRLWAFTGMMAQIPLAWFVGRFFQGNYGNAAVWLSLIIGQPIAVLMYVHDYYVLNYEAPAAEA

SMILES: NC(=O)C[C@H]1CC[C@H](c2ccc(NC(=O)CCNC(=O)c3nc(-c4ccccc4)oc3C(F)(F)F)cc2)CC1 [Compound 41, trans-2-phenyl-5-trifluoromethyloxazole-4-carboxylic acid{2-[4-(4-carbamoylmethylcyclohexyl)phenylcarbamoyl]ethyl}amide]
IC50: < 0.05 µM
in vitro inhibition activity with respect to DGAT1: good to excellent

SMILES: Cc1ccc(-n2cc(C(=O)NCCC(=O)Nc3ccc([C@H]4CC[C@H](CC(=O)O)CC4)cc3)c(C(F)(F)F)n2)cc1 [Compound 47, trans-[4-(4-{3-[(1-p-tolyl-3-trifluoromethyl-1H-pyrazole-4-carbonyl)amino]propionylamino}phenyl)cyclohexyl]acetic acid]
IC50: < 0.1 µM

SMILES: O=C(O)C[C@H]1CC[C@H](c2ccc(NC(=O)CCNC(=O)c3cn(-c4ccc(Cl)cc4)nc3C(F)(F)F)cc2)CC1 [Compound 49, trans-{4-[4-(3-{[1-(4-chlorophenyl)-3-trifluoromethyl-1H-pyrazole-4-carbonyl]amino}propionylamino)phenyl]cyclohexyl}acetic acid]
IC50: < 0.1 µM

SMILES: O=C(O)C[C@H]1CC[C@H](c2ccc(NC(=O)CCNC(=O)c3cn(-c4ccccc4Cl)nc3C(F)(F)F)cc2)CC1 [Compound 51, trans-{4-[4-(3-{[1-(2-Chlorophenyl)-3-trifluoromethyl-1H-pyrazole-4-carbonyl]amino}propionylamino)phenyl]cyclohexyl}acetic acid]
IC50: < 0.1 µM

SMILES: O=C(O)C[C@H]1CC[C@H](c2ccc(NC(=O)CCNC(=O)c3nc(-c4ccc(F)cc4)oc3C(F)(F)F)cc2)CC1 [Compound 56, trans-{4-[4-(3-{[2-(4-fluorophenyl)-5-trifluoromethyloxazole-4-carbonyl]amino}propionylamino)phenyl]cyclohexyl}acetic acid]
IC50: < 0.5 µM

SMILES: O=C(O)C[C@H]1CC[C@H](c2ccc(NC(=O)CCNC(=O)c3ccc(OCC4CC4)cc3)cc2)CC1 [Compound 58, trans-(4-{4-[3-(4-cyclopropylmethoxybenzoylamino)propionylamino]phenyl}cyclohexyl)acetic acid]
IC50: < 0.5 µM

SMILES: O=C(O)C[C@H]1CC[C@H](c2ccc(NC(=O)CCNC(=O)c3nc(-c4ccccc4F)oc3C(F)(F)F)cc2)CC1 [Compound 60, trans-{4-[4-(3-{[2-(2-Fluorophenyl)-5-trifluoromethyloxazole-4-carbonyl]amino}propionylamino)phenyl]cyclohexyl}acetic acid]
IC50: < 0.05 µM
in vitro inhibition activity with respect to DGAT1: good to excellent

SMILES: O=C(O)C[C@H]1CC[C@H](c2ccc(NC(=O)CCNC(=O)c3nc(-c4ccc(Cl)cc4Cl)oc3C(F)(F)F)cc2)CC1 [Compound 64, trans-{4-[4-(3-{[2-(2,4-dichlorophenyl)-5-trifluoromethyloxazole-4-carbonyl]amino}propionylamino)phenyl]cyclohexyl}acetic acid]
IC50: < 0.05 µM
in vitro inhibition activity with respect to DGAT1: good to excellent

SMILES: O=C(O)C[C@H]1CC[C@H](c2ccc(NC(=O)CCNC(=O)c3nc(-c4ccccc4Br)oc3C(F)(F)F)cc2)CC1 [Compound 65, trans-{4-[4-(3-{[2-(2-Bromophenyl)-5-trifluoromethyloxazole-4-carbonyl]amino}propionylamino)phenyl]cyclohexyl}acetic acid]
IC50: < 0.05 µM
in vitro inhibition activity with respect to DGAT1: good to excellent

Results, then the compound that gave them:

IC50: < 0.05 µM
in vitro inhibition activity with respect to DGAT1: good to excellent
SMILES: O=C(O)C[C@H]1CC[C@H](c2ccc(NC(=O)CCNC(=O)c3nc(-c4ccccc4C(F)(F)F)oc3C(F)(F)F)cc2)CC1 [Compound 66, trans-{4-[4-(3-{[5-trifluoromethyl-2-(2-trifluoromethylphenyl)oxazole-4-carbonyl]amino}propionylamino)phenyl]cyclohexyl}acetic acid]

IC50: < 0.05 µM
in vitro inhibition activity with respect to DGAT1: good to excellent
SMILES: O=C(O)C[C@H]1CC[C@H](c2ccc(NC(=O)CCNC(=O)c3nc(-c4c(Cl)cccc4Cl)oc3C(F)(F)F)cc2)CC1 [Compound 68, trans-{4-[4-(3-{[2-(2,6-dichlorophenyl)-5-trifluoromethyloxazole-4-carbonyl]amino}propionylamino)phenyl]cyclohexyl}acetic acid]

IC50: < 0.05 µM
SMILES: O=C(O)C[C@H]1CC[C@H](c2ccc(NC(=O)CCNC(=O)c3nc(-c4c(Cl)cccc4Cl)oc3C(F)(F)F)cc2)CC1 [Compound 69, sodium; trans-{4-[4-(3-{[2-(2,6-dichlorophenyl)-5-trifluoromethyloxazole-4-carbonyl]amino}propionylamino)phenyl]cyclohexyl}acetate]

IC50: < 0.1 µM
SMILES: O=C(O)C[C@H]1CC[C@H](c2ccc(NC(=O)CCNC(=O)c3nc(-c4c(F)cccc4Cl)oc3C(F)(F)F)cc2)CC1 [Compound 73, trans-{4-[4-(3-{[2-(2-chloro-6-fluorophenyl)-5-trifluoromethyloxazole-4-carbonyl]amino}propionylamino)phenyl]cyclohexyl}acetic acid]

IC50: < 0.1 µM
SMILES: Cc1cccc(C)c1-c1ccc(C(=O)NCCC(=O)Nc2ccc([C@H]3CC[C@H](CC(=O)O)CC3)cc2)cc1 [Compound 75, trans-[4-(4-(3-(2′,6′-dimethylbiphenyl-4-carbonylamino)propionylamino)phenyl)cyclohexyl]acetic acid]

IC50: < 0.05 µM
SMILES: O=C(O)C[C@H]1CC[C@H](c2ccc(NC(=O)CCNC(=O)c3nc(-c4ccccc4Cl)oc3C(F)(F)F)cc2)CC1 [Compound 79, sodium; trans-{4-[4-(3-{[2-(2-chlorophenyl)-5-trifluoromethyloxazole-4-carbonyl]amino}propionylamino)phenyl]cyclohexyl}acetate]

IC50: < 0.1 µM
SMILES: O=C(O)C[C@H]1CC[C@H](c2ccc(NC(=O)CCNC(=O)c3ccc(-c4ccccc4Cl)cc3)cc2)CC1 [Compound 86, trans-[4-(4-{3-[(2′-chlorobiphenyl-4-carbonyl)amino]propionylamino}phenyl)cyclohexyl]acetic acid]

IC50: < 0.1 µM
SMILES: O=C(O)C[C@H]1CC[C@H](c2ccc(NC(=O)CCNC(=O)c3nc(-c4ccccc4)oc3Cl)cc2)CC1 [Compound 87, trans-[4-(4-{3-[(5-chloro-2-phenyloxazole-4-carbonyl)amino]propionylamino}phenyl)cyclohexyl]acetic acid]

IC50: < 0.05 µM
in vitro inhibition activity with respect to DGAT1: good to excellent
SMILES: CCc1ccc(-c2ccc(C(=O)NCCC(=O)Nc3ccc([C@H]4CC[C@H](CC(=O)O)CC4)cc3)cc2)cc1 [Compound 93, trans-[4-(4-{3-[(4′-ethylbiphenyl-4-carbonyl)amino]propionylamino}phenyl)cyclohexyl]acetic acid]

IC50: < 0.05 µM
in vitro inhibition activity with respect to DGAT1: good to excellent
SMILES: O=C(O)C[C@H]1CC[C@H](c2ccc(NC(=O)CCNC(=O)c3ccc(-c4ccccc4)c(Cl)c3)cc2)CC1 [Compound 94, trans-[4-(4-{3-[(2-chlorobiphenyl-4-carbonyl)amino]propionylamino}phenyl)cyclohexyl]acetic acid]

IC50: < 0.05 µM
in vitro inhibition activity with respect to DGAT1: good to excellent
SMILES: O=C(O)C[C@H]1CC[C@H](c2ccc(NC(=O)CCNC(=O)c3nc(-c4ccccc4Cl)oc3Cl)cc2)CC1 [Compound 95, trans-{4-[4-(3-{[5-chloro-2-(2-chlorophenyl)oxazole-4-carbonyl]amino}propionylamino)phenyl]cyclohexyl}acetic acid]

IC50: < 0.05 µM
in vitro inhibition activity with respect to DGAT1: good to excellent
SMILES: O=C(O)C[C@H]1CC[C@H](c2ccc(NC(=O)CCNC(=O)c3nc(-c4c(Cl)cc(F)cc4Cl)oc3C(F)(F)F)cc2)CC1 [Compound 105]
